The supplement of paper PMC10627819
Converted amounts (≈) assume the structure as drawn.

Experiments:
S. aureus DSM 20231 [1] = test system: S. aureus DSM 20231
S. aureus Newman [2] = test system: S. aureus Newman
S. pneumoniae D39V [3] = test system: S. pneumoniae D39V
S. aureus DSM 20231 [4] = experiment: fitness (endpoint OD595 vs no drug) (fraction); higher = more growth
Summary of the method: (§1)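 Background-subtracted growth curves were the basis for fitness, taken as the optical density at entry into stationary phase over the robust mean of no-drug control wells. A cap of 1 was applied. The curves came from OD595 readings every 30 min for 14 h at 37 °C, in 384-well plates seeded at OD595 0.01 with 30 µl, or 55 µl for S. pneumoniae.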

S. aureus Newman [5] = experiment: as above
Summary of the method: as §1

S. pneumoniae D39V [6] = experiment: as above
Summary of the method: as §1

B. subtilis 168 [7] = test system: B. subtilis 168
B. subtilis 168 [8] = experiment: fitness (endpoint OD595 vs no drug) (fraction); higher = more growth
Summary of the method: as §1

S. aureus DSM 20231 [9] = experiment: Bliss interaction score (quartile over a dose matrix) (fitness difference); higher = more antagonism (negative = synergy)
Summary of the method: (§2)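 OD595 was read at entry into stationary phase and expressed relative to the robust mean of the no-drug wells on the same plate, capped at 1. The resulting ratio is the fitness value. The Bliss score, observed fitness minus product-based expected fitness with single-drug fitness inferred from combinations, is summarised by quartiles over technical, biological and donor/recipient replicates.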

B. subtilis 168 [10] = experiment: as above
Summary of the method: as §2

S. aureus Newman [11] = experiment: as above
Summary of the method: as §2

S. pneumoniae D39V [12] = experiment: as above
Summary of the method: as §2
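Throughout, for Bliss interaction score (quartile over a dose matrix): first quartile when negative (synergy) and third quartile when positive (antagonism).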

CC1(C)S[C@@H]2[C@H](NC(=O)[C@H](N)c3ccc(O)cc3)C(=O)N2[C@H]1C(=O)O [Amoxicillin]
Details | MIC [µg/mL]
S. aureus DSM 20231 [1] | 0.556 (≈ 1.52 µM)
S. aureus Newman [2] | 0.25 (≈ 0.684 µM)
S. pneumoniae D39V [3] | 0.004 (≈ 0.0109 µM)

fitness
Details | 0.0008 µg/mL | 0.0015 µg/mL | 0.003 µg/mL | 0.0625 µg/mL | 0.125 µg/mL | 0.25 µg/mL | 0.5 µg/mL
S. aureus DSM 20231 [4] | – | – | – | 0.606 | 0.504 | 0.0502 | 0.0082
S. aureus Newman [5] | – | – | – | 0.896 | 0.878 | 0.85 | 0.865
S. pneumoniae D39V [6] | 0.972 | 0.945 | 0.923 | – | – | – | –

CO/N=C(\C(=O)N[C@@H]1C(=O)N2C(C(=O)[O-])=C(C[N+]3(C)CCCC3)CS[C@H]12)c1csc(N)n1 [Cefepime]
Details | MIC [µg/mL]
B. subtilis 168 [7] | 0.25 (≈ 0.52 µM)
S. aureus DSM 20231 [1] | 0.556 (≈ 1.16 µM)
S. aureus Newman [2] | 0.556 (≈ 1.16 µM)
S. pneumoniae D39V [3] | 0.031 (≈ 0.0645 µM)

Details | fitness
B. subtilis 168 [8], 0.0625 µg/mL | 0.872
B. subtilis 168 [8], 0.125 µg/mL | 0.729
B. subtilis 168 [8], 0.25 µg/mL | 0.432
S. aureus DSM 20231 [4], 0.125 µg/mL | ≥ 1
S. aureus DSM 20231 [4], 0.25 µg/mL | 0.996
S. aureus DSM 20231 [4], 0.5 µg/mL | 0.935
S. aureus Newman [5], 0.125 µg/mL | 0.924
S. aureus Newman [5], 0.25 µg/mL | 0.872
S. aureus Newman [5], 0.5 µg/mL | 0.784
S. pneumoniae D39V [6], 0.0078 µg/mL | ≥ 1
S. pneumoniae D39V [6], 0.0155 µg/mL | 0.993
S. pneumoniae D39V [6], 0.031 µg/mL | 0.696

CCCCCCCCCC(=O)N[C@@H](Cc1c[nH]c2ccccc12)C(=O)N[C@H](CC(N)=O)C(=O)N[C@@H](CC(=O)O)C(=O)N[C@@H]1C(=O)NCC(=O)N[C@@H](CCCN)C(=O)N[C@@H](CC(=O)O)C(=O)N[C@H](C)C(=O)N[C@@H](CC(=O)O)C(=O)NCC(=O)N[C@H](CO)C(=O)N[C@@H]([C@H](C)CC(=O)O)C(=O)N[C@@H](CC(=O)c2ccccc2N)C(=O)O[C@@H]1C [Daptomycin] + C[C@@H]1O[C@@H]1P(=O)(O)O [Fosfomycin]
Details | Bliss interaction score
B. subtilis 168 [10] | 0.063
S. aureus DSM 20231 [9] | -0.0509
S. aureus Newman [11] | 0.0452
S. pneumoniae D39V [12] | 0.0735

fitness
Details | first compound 0.125 µg/mL | first compound 0.25 µg/mL | first compound 0.5 µg/mL | first compound 1 µg/mL | first compound 2 µg/mL | first compound 4 µg/mL
B. subtilis 168 [8], partner 1.562 µg/mL | 0.686 | 0.728 | 0.771 | – | – | –
B. subtilis 168 [8], partner 3.124 µg/mL | 0.642 | 0.645 | 0.625 | – | – | –
B. subtilis 168 [8], partner 6.248 µg/mL | 0.492 | 0.468 | 0.511 | – | – | –
S. aureus DSM 20231 [4], partner 0.781 µg/mL | 0.742 | 0.659 | 0.818 | 0.879 | 0.778 | –
S. aureus DSM 20231 [4], partner 1.562 µg/mL | 0.589 | 0.586 | 0.621 | 0.609 | 0.601 | –
S. aureus DSM 20231 [4], partner 3.124 µg/mL | 0.498 | 0.496 | 0.505 | 0.495 | 0.508 | –
S. aureus Newman [5], partner 0.781 µg/mL | 0.657 | 0.674 | 0.703 | – | – | –
S. aureus Newman [5], partner 1.562 µg/mL | 0.536 | 0.534 | 0.534 | – | – | –
S. aureus Newman [5], partner 3.124 µg/mL | 0.233 | 0.172 | 0.16 | – | – | –
S. pneumoniae D39V [6], partner 1.25 µg/mL | – | – | – | 0.93 | 0.919 | –
S. pneumoniae D39V [6], partner 2.5 µg/mL | – | – | – | 0.844 | 0.845 | 0.767
S. pneumoniae D39V [6], partner 5 µg/mL | – | – | – | 0.624 | 0.64 | 0.597

B. subtilis 168 [8], first compound 1 µg/mL, one replicate
Details | fitness
partner 1.562 µg/mL | 0.7
partner 3.124 µg/mL | 0.501
partner 6.248 µg/mL | 0.305

CCCCCCCCCC(=O)N[C@@H](Cc1c[nH]c2ccccc12)C(=O)N[C@H](CC(N)=O)C(=O)N[C@@H](CC(=O)O)C(=O)N[C@@H]1C(=O)NCC(=O)N[C@@H](CCCN)C(=O)N[C@@H](CC(=O)O)C(=O)N[C@H](C)C(=O)N[C@@H](CC(=O)O)C(=O)NCC(=O)N[C@H](CO)C(=O)N[C@@H]([C@H](C)CC(=O)O)C(=O)N[C@@H](CC(=O)c2ccccc2N)C(=O)O[C@@H]1C [Daptomycin] + C[n+]1ccc(-c2cc[n+](C)cc2)cc1 [Paraquat]
Details | Bliss interaction score
B. subtilis 168 [10] | 0.0589
S. aureus DSM 20231 [9] | -0.0451
S. aureus Newman [11] | 0.0526
S. pneumoniae D39V [12] | 0.0711

fitness
Details | first compound 0.125 µg/mL | first compound 0.25 µg/mL | first compound 0.5 µg/mL | first compound 1 µg/mL | first compound 2 µg/mL | first compound 4 µg/mL
B. subtilis 168 [8], partner 1.25 µg/mL | 0.901 | 0.93 | 0.85 | – | – | –
B. subtilis 168 [8], partner 2.5 µg/mL | 0.9 | 0.901 | 0.902 | – | – | –
B. subtilis 168 [8], partner 5 µg/mL | 0.894 | 0.857 | 0.81 | – | – | –
S. aureus DSM 20231 [4], partner 1.25 µg/mL | 0.906 | 0.9 | 0.942 | 0.932 | 0.883 | –
S. aureus DSM 20231 [4], partner 2.5 µg/mL | 0.898 | 0.923 | 0.991 | 0.968 | 0.995 | –
S. aureus DSM 20231 [4], partner 5 µg/mL | 0.93 | 0.927 | 0.924 | 1 | 0.907 | –
S. aureus Newman [5], partner 1.25 µg/mL | ≥ 1 | ≥ 1 | 0.995 | – | – | –
S. aureus Newman [5], partner 2.5 µg/mL | ≥ 1 | ≥ 1 | 0.977 | – | – | –
S. aureus Newman [5], partner 5 µg/mL | 0.974 | 0.945 | 0.9 | – | – | –
S. pneumoniae D39V [6], partner 1.5 µg/mL | – | – | – | 0.996 | 0.987 | 0.936
S. pneumoniae D39V [6], partner 3 µg/mL | – | – | – | 0.973 | 0.955 | 0.937
S. pneumoniae D39V [6], partner 6 µg/mL | – | – | – | 0.974 | 0.922 | 0.872

B. subtilis 168 [8], first compound 1 µg/mL, one replicate
Details | fitness
partner 1.25 µg/mL | 0.743
partner 2.5 µg/mL | 0.722
partner 5 µg/mL | 0.653

CCCCCCCCCC(=O)N[C@@H](Cc1c[nH]c2ccccc12)C(=O)N[C@H](CC(N)=O)C(=O)N[C@@H](CC(=O)O)C(=O)N[C@@H]1C(=O)NCC(=O)N[C@@H](CCCN)C(=O)N[C@@H](CC(=O)O)C(=O)N[C@H](C)C(=O)N[C@@H](CC(=O)O)C(=O)NCC(=O)N[C@H](CO)C(=O)N[C@@H]([C@H](C)CC(=O)O)C(=O)N[C@@H](CC(=O)c2ccccc2N)C(=O)O[C@@H]1C [Daptomycin] + Cc1cc(NS(=O)(=O)c2ccc(N)cc2)no1 [Sulfamethoxazol]
Details | Bliss interaction score
B. subtilis 168 [10] | -0.0776
S. aureus DSM 20231 [9] | 0.041
S. aureus Newman [11] | 0.0337
S. pneumoniae D39V [12] | 0.0745

one replicate
Details | fitness
B. subtilis 168 [8], first compound 0.125 µg/mL, partner 0.5 µg/mL | 0.919
B. subtilis 168 [8], first compound 0.25 µg/mL, partner 0.5 µg/mL | 0.908
B. subtilis 168 [8], first compound 0.5 µg/mL, partner 0.5 µg/mL | 0.969
B. subtilis 168 [8], first compound 1 µg/mL, partner 1 µg/mL | 0.719
B. subtilis 168 [8], first compound 1 µg/mL, partner 2 µg/mL | 0.72
B. subtilis 168 [8], first compound 1 µg/mL, partner 4 µg/mL | 0.645
S. aureus DSM 20231 [4], first compound 0.125 µg/mL, partner 1 µg/mL | 0.926
S. aureus DSM 20231 [4], first compound 0.125 µg/mL, partner 2 µg/mL | ≥ 1
S. aureus DSM 20231 [4], first compound 0.125 µg/mL, partner 4 µg/mL | ≥ 1
S. aureus DSM 20231 [4], first compound 0.25 µg/mL, partner 1 µg/mL | 0.951
S. aureus DSM 20231 [4], first compound 0.25 µg/mL, partner 2 µg/mL | ≥ 1
S. aureus DSM 20231 [4], first compound 0.25 µg/mL, partner 4 µg/mL | 0.974
S. aureus Newman [5], first compound 0.5 µg/mL, partner 8 µg/mL | 0.954
S. aureus Newman [5], first compound 1 µg/mL, partner 2 µg/mL | ≥ 1
S. aureus Newman [5], first compound 1 µg/mL, partner 4 µg/mL | 0.986
S. aureus Newman [5], first compound 1 µg/mL, partner 8 µg/mL | 0.973
S. aureus Newman [5], first compound 2 µg/mL, partner 2 µg/mL | 0.994
S. aureus Newman [5], first compound 2 µg/mL, partner 4 µg/mL | ≥ 1
S. aureus Newman [5], first compound 2 µg/mL, partner 8 µg/mL | 0.983

fitness
Details | partner 1 µg/mL | partner 2 µg/mL | partner 4 µg/mL
B. subtilis 168 [8], first compound 0.125 µg/mL | 0.893 | 0.821 | 0.938
B. subtilis 168 [8], first compound 0.25 µg/mL | 0.895 | 0.885 | 0.856
B. subtilis 168 [8], first compound 0.5 µg/mL | 0.928 | 0.814 | –
S. aureus DSM 20231 [4], first compound 0.5 µg/mL | 0.914 | ≥ 1 | ≥ 1
S. aureus DSM 20231 [4], first compound 1 µg/mL | 0.918 | 0.988 | 0.976
S. aureus DSM 20231 [4], first compound 2 µg/mL | 0.913 | 0.988 | 0.963
S. aureus Newman [5], first compound 0.125 µg/mL | 0.967 | 0.99 | ≥ 1
S. aureus Newman [5], first compound 0.25 µg/mL | 0.967 | 0.977 | ≥ 1
S. aureus Newman [5], first compound 0.5 µg/mL | 0.992 | 0.971 | ≥ 1
S. pneumoniae D39V [6], first compound 1 µg/mL | 0.932 | 0.95 | 0.964
S. pneumoniae D39V [6], first compound 2 µg/mL | 0.924 | 0.901 | 0.935
S. pneumoniae D39V [6], first compound 4 µg/mL | 0.916 | 0.938 | 0.938
